Measured values as given in patent publication US9822147B2, “Methods of treating ophthalmic diseases using NPR-B agonists” (priority 2009, dated 2017).
Read-outs that look alike come from different tables or passages of the source. Numbered stars: 1 amine (or outer) side, 2 acyl side, 3 side chain; on linkers, the order of the positions; unused ones are H or OH. Square brackets hold non-standard residues; d marks the D form. Peptide text beside a SMILES is read from it. * marks the point of attachment. X5 = NCCC(=O)N[C@@H]1C[C@@H](C(=O)[*:2])N([*:1])C1; Phe(3-Cl) = N[C@@H](Cc1cccc(Cl)c1)C(=O)O; X2 = O=C([C@H]1CCCN([*:1])C1)[*:2]; Hyp = O=C(O)[C@@H]1C[C@@H](O)CN1; 3Thi = N[C@@H](Cc1ccsc1)C(=O)O; Aoc(2) = CCCCCC[C@H](N)C(=O)O; NHcycloheptyl = C1CCCC(N*)CC1; NMeL = CN[C@@H](CC(C)C)C(=O)O; Nle = CCCC[C@H](N)C(=O)O; Octanoyl = CCCCCCCC(=O)*; AEEA = NCCOCCOCC(=O)O

Target: T1, NPR-B (Homo sapiens, UniProt P20594)
T1 construct: a functional assay using endogenously NPR-B expressing GTM-3 cells; endogenous in cells; host or cells: GTM-3 (human glaucoma trabecular meshwork cells)
T1 sequence (P20594 23-1047): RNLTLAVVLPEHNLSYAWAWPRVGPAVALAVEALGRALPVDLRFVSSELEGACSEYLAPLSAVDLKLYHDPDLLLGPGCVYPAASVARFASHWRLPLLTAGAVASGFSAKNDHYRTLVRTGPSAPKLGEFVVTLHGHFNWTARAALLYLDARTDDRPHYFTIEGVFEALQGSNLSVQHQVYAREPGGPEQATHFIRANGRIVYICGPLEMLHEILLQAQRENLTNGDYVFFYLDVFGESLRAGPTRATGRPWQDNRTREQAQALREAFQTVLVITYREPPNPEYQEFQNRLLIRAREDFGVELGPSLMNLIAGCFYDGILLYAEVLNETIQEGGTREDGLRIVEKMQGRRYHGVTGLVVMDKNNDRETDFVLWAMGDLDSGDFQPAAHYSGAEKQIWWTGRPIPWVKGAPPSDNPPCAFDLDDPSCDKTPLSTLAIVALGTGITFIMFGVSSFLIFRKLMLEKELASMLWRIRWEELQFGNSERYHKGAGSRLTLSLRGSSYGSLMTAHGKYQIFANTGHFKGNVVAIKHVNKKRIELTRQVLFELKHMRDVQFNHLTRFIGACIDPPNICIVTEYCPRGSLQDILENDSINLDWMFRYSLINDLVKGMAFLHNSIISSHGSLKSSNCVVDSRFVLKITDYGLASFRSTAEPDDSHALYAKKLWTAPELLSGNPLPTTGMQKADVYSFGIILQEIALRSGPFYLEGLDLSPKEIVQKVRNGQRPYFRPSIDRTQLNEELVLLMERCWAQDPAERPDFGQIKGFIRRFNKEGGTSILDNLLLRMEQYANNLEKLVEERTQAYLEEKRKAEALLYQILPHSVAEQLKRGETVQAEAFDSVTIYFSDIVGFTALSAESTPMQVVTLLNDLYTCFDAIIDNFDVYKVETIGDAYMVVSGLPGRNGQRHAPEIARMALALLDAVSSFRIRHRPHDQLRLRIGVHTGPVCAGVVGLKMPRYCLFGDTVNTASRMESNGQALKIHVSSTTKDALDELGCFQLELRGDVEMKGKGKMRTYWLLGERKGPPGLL
Experiment: NPR-B induced production of cyclic GMP in human glaucoma trabecular meshwork cells (GTM-3)
Type: cell-based

[1] = group by EC50 and Emax (CNP = 100%), Table 4, read-out: Activity (group), NPR-B activation assayed with GTM-3 cells

Compound	EC50 [1] [nM]	EC50 [nM]
CCCCCCCC(=O)N1CCC[C@H](C(=O)N[C@@H](Cc2ccsc2)C(=O)N[C@H](CC(C)C)C(=O)N[C@@H](CC(C)C)C(=O)N2C[C@H](O)C[C@H]2C(=O)N(C)[C@@H](CC(C)C)C(=O)N[C@@H](CC(=O)O)C(=O)N[C@@H](CCCNC(=N)N)C(=O)N[C@H](C(N)=O)[C@@H](C)CC)C1 [JAL-1620, Occ-Sni-Thk-leu-Leu-Hyp-Nml-Asp-Arg-Ile-NH2] (Octanoyl-[X2][3Thi][dL]L[Hyp][NMeL]DRI-NH2)	< 1000	–
CCCCCCCC(=O)N[C@H](C)C(=O)N[C@@H](Cc1ccccc1)C(=O)N[C@H](CC(C)C)C(=O)N[C@@H](CC(C)C)C(=O)N1C[C@H](O)C[C@H]1C(=O)N(C)[C@@H](CC(C)C)C(=O)N[C@@H](CC(=O)O)C(=O)N[C@@H](CCCNC(=N)N)C(=O)NC1(C(N)=O)CCCCC1 [JAL-1358, Occ-ala-Phe-leu-Leu-Hyp-Nml-Asp-Arg-Egz-NH2] (HELM PEPTIDE1{[CCCCCCCC(=O)[*:2]].[dA].F.[dL].L.[Hyp].[meL].D.R.[O=C(C1(N[*:1])CCCCC1)[*:2]].[am]}$$$$V2.0)	< 1000	–
CCCCCCCC(=O)N1CCC[C@H](C(=O)N[C@@H](Cc2ccccc2)C(=O)N[C@H](CC(C)C)C(=O)N[C@@H](CCCC)C(=O)N2C[C@H](O)C[C@H]2C(=O)N(C)[C@@H](CC(C)C)C(=O)N[C@@H](CC(=O)O)C(=O)N2CCC[C@H]2C(=O)NC2CCCCCC2)C1 [JAL-1657, Occ-Sni-Phe-leu-Nle-Hyp-Nml-Asp-Pro-Che] (Octanoyl-[X2]F[dL][Nle][Hyp][NMeL]DP-NHcycloheptyl)	< 1000	–
CCCCCCCC(=O)N1CCC[C@H](C(=O)N[C@@H](Cc2ccccc2)C(=O)N[C@H](CC(C)C)C(=O)N[C@@H](CC(C)C)C(=O)N2C[C@H](NC(=O)CCN)C[C@H]2C(=O)N(C)[C@@H](CC(C)C)C(=O)N[C@@H](CC(=O)O)C(=O)N[C@@H](CCCNC(=N)N)C(=O)N[C@H](C(N)=O)[C@@H](C)CC)C1 [JAL-1323, Occ-Sni-Phe-leu-Leu-Tap(Bal)-Nml-Asp-Arg-Ile-NH2] (Octanoyl-[X2]F[dL]L[X5][NMeL]DRI-NH2)	< 1000	–
CCCCCCCC(=O)N1CCC[C@H](C(=O)N[C@@H](Cc2ccccc2)C(=O)N[C@H](CCCCN)C(=O)N[C@@H](CC(C)C)C(=O)N2C[C@H](O)C[C@H]2C(=O)N(C)[C@@H](CC(C)C)C(=O)N[C@@H](CC(=O)O)C(=O)N[C@@H](CCCNC(=N)N)C(=O)N[C@H](C(N)=O)[C@@H](C)CC)C1 [JAL-1254, Occ-Sni-Phe-lys-Leu-Hyp-Nml-Asp-Arg-Ile-NH2] (HELM PEPTIDE1{[CCCCCCCC(=O)[*:2]].[O=C([C@H]1CCCN([*:1])C1)[*:2]].F.[dK].L.[Hyp].[meL].D.R.I.[am]}$$$$V2.0)	< 1000	–
CCCCCCCC(=O)N[C@H](C)C(=O)N[C@@H](Cc1ccccc1)C(=O)NCC(=O)N[C@@H](CC(C)C)C(=O)N1C[C@H](N)C[C@H]1C(=O)N[C@@H](CC(C)C)C(=O)N[C@@H](CC(=O)O)C(=O)N[C@@H](CCCNC(=N)N)C(=O)N[C@H](C(N)=O)[C@@H](C)CC [JAL-1249, Occ-ala-Phe-Gly-Leu-Tap-Leu-Asp-Arg-Ile-NH2] (HELM PEPTIDE1{[CCCCCCCC(=O)[*:2]].[dA].F.G.L.[N[C@@H]1C[C@@H](C(=O)[*:2])N([*:1])C1].L.D.R.I.[am]}$$$$V2.0)	–	< 1000
CCCCCCCCN1CCC[C@H](C(=O)N[C@@H](Cc2ccccc2)C(=O)N[C@H](CC(C)C)C(=O)N[C@@H](CC(C)C)C(=O)N2C[C@H](O)C[C@H]2C(=O)N(C)[C@@H](CC(C)C)C(=O)N[C@@H](CC(=O)O)C(=O)N[C@@H](CCCNC(=N)N)C(=O)N[C@H](C(N)=O)[C@@H](C)CC)C1 [JAL-1302, Oct-Sni-Phe-leu-Leu-Hyp-Nml-Asp-Arg-Ile-NH2] (HELM PEPTIDE1{[CCCCCCCCN1CCC[C@H](C(=O)[*:2])C1].F.[dL].L.[Hyp].[meL].D.R.I.[am]}$$$$V2.0)	< 1000	–

Further lines, with some results ahead:

EC50 [1] [nM]	Compound	EC50 [nM]
< 1000	CCCCCCCCCC(=O)N1CCC[C@H](C(=O)N[C@@H](Cc2ccccc2)C(=O)N[C@H](CC(C)C)C(=O)N[C@@H](CC(C)C)C(=O)N2C[C@H](O)C[C@H]2C(=O)N(C)[C@@H](CC(C)C)C(=O)N[C@@H](CC(=O)O)C(=O)N[C@@H](CCCNC(=N)N)C(=O)N[C@H](C(N)=O)[C@@H](C)CC)C1 [JAL-1666, 5587-Sni-Phe-leu-Leu-Hyp-Nml-Asp-Arg-Ile-NH2] (HELM PEPTIDE1{[CCCCCCCCCC(=O)[*:2]].[O=C([C@H]1CCCN([*:1])C1)[*:2]].F.[dL].L.[Hyp].[meL].D.R.I.[am]}$$$$V2.0)	–
< 1000	CCCCCCCC(=O)N1CCCC[C@@H]1C(=O)N[C@@H](Cc1ccccc1)C(=O)N[C@H](CCCNC(=N)N)C(=O)N[C@@H](CC(C)C)C(=O)N1CCC[C@H]1C(=O)N(C)[C@@H](CC(C)C)C(=O)N[C@@H](CC(=O)O)C(=O)N[C@@H](CCCNC(=N)N)C(=O)N[C@H](C(N)=O)[C@@H](C)CC [JAL-1078, Occ-pip-Phe-arg-Leu-Pro-Nml-Asp-Arg-Ile-NH2] (HELM PEPTIDE1{[CCCCCCCC(=O)[*:2]].[O=C([C@H]1CCCCN1[*:1])[*:2]].F.[dR].L.P.[meL].D.R.I.[am]}$$$$V2.0)	–
< 1000	CCCCc1cnc(N2CCC[C@H](C(=O)N[C@@H](Cc3ccccc3)C(=O)N[C@H](CC(C)C)C(=O)N[C@@H](CC(C)C)C(=O)N3C[C@H](O)C[C@H]3C(=O)N(C)[C@@H](CC(C)C)C(=O)N[C@@H](CC(=O)O)C(=O)N[C@@H](CCCNC(=N)N)C(=O)N[C@H](C(N)=O)[C@@H](C)CC)C2)s1 [JAL-1382, Sbt-Sni-Phe-leu-Leu-Hyp-Nml-Asp-Arg-Ile-NH2] (HELM PEPTIDE1{[CCCCc1cnc(N2CCC[C@H](C(=O)[*:2])C2)s1].F.[dL].L.[Hyp].[meL].D.R.I.[am]}$$$$V2.0)	–
< 1000	CCCCCCCC(=O)N1CCC[C@H](C(=O)N[C@@H](Cc2cccc(Cl)c2)C(=O)N[C@H](CC(C)C)C(=O)N[C@@H](CC(C)C)C(=O)N2C[C@H](O)C[C@H]2C(=O)N(C)[C@@H](CC(C)C)C(=O)N[C@@H](CC(=O)O)C(=O)N[C@@H](CCCNC(=N)N)C(=O)N[C@H](C(N)=O)[C@@H](C)CC)C1 [JAL-1618, Occ-Sni-Mcf-leu-Leu-Hyp-Nml-Asp-Arg-Ile-NH2] (Octanoyl-[X2][Phe(3-Cl)][dL]L[Hyp][NMeL]DRI-NH2)	–
< 1000	CCCCc1cnc(Nc2ccc(C(=O)N[C@@H](Cc3ccccc3)C(=O)N[C@H](CC(C)C)C(=O)N[C@@H](CC(C)C)C(=O)N3C[C@H](O)C[C@H]3C(=O)N(C)[C@@H](CC(C)C)C(=O)N[C@@H](CC(=O)O)C(=O)N[C@@H](CCCNC(=N)N)C(=O)N[C@H](C(N)=O)[C@@H](C)CC)cc2)s1 [JAL-1380, (AR-201-68)-Phe-leu-Leu-Hyp-Nml-Asp-Arg-Ile-NH2] (HELM PEPTIDE1{[CCCCc1cnc(Nc2ccc(C(=O)[*:2])cc2)s1].F.[dL].L.[Hyp].[meL].D.R.I.[am]}$$$$V2.0)	–
< 1000	CCCCCCCC(=O)N1CCC[C@H](C(=O)N[C@@H](Cc2ccccc2)C(=O)N[C@H](CC(C)C)C(=O)N[C@@H](CC(C)C)C(=O)N2C[C@H](O)C[C@H]2C(=O)N[C@H](C(=O)N[C@@H](CC(=O)O)C(=O)N[C@@H](CCCNC(=N)N)C(=O)N[C@H](C(N)=O)[C@@H](C)CC)[C@@H](C)CC)C1 [JAL-1625, Occ-Sni-Phe-leu-Leu-Hyp-Ile-Asp-Arg-Ile-NH2] (HELM PEPTIDE1{[CCCCCCCC(=O)[*:2]].[O=C([C@H]1CCCN([*:1])C1)[*:2]].F.[dL].L.[Hyp].I.D.R.I.[am]}$$$$V2.0)	–
< 1000	CCCCCCCC(=O)N[C@H](C)C(=O)N[C@@H](Cc1ccccc1)C(=O)N[C@H](CC(C)C)C(=O)N[C@@H](CC(C)C)C(=O)N1C[C@H](O)C[C@H]1C(=O)N(C)[C@@H](CC(C)C)C(=O)N[C@H](C(=O)N[C@@H](CCCNC(=N)N)C(=O)N[C@H](C(N)=O)[C@@H](C)CC)C1CCCC1 [JAL-1556, Occ-ala-Phe-leu-Leu-Hyp-Nml-(BB725)-Arg-Ile-NH2] (HELM PEPTIDE1{[CCCCCCCC(=O)[*:2]].[dA].F.[dL].L.[Hyp].[meL].[O=C([C@@H](N[*:1])C1CCCC1)[*:2]].R.I.[am]}$$$$V2.0)	–
< 1000	CCCCCC[C@H](NC(=O)COCCOCCN)C(=O)N1CCC[C@H](C(=O)N[C@@H](Cc2ccccc2)C(=O)N[C@H](CC(C)C)C(=O)N[C@@H](CC(C)C)C(=O)N2C[C@H](O)C[C@H]2C(=O)N(C)[C@@H](CC(C)C)C(=O)N[C@@H](CC(=O)O)C(=O)N[C@@H](CCCNC(=N)N)C(=O)N[C@H](C(N)=O)[C@@H](C)CC)C1 [JAL-1808, H-Adx-Hgl-Sni-Phe-leu-Leu-Hyp-Nml-Asp-Arg-Ile-NH2] (H-[AEEA][Aoc(2)][X2]F[dL]L[Hyp][NMeL]DRI-NH2)	–
